Literature values in US10325677B2, “Apparatus and computerized method for optimizing or generating a sigma profile for a molecule” (Texas Tech University System, priority 2014, dated 2019).

Settings: published in the literature

NRTL-SAC Conceptual Segment Number X: −0.105 | NRTL-SAC Conceptual Segment Number Y^+: 1.211 | NRTL-SAC Conceptual Segment Number Y^−: 0.282 | NRTL-SAC Conceptual Segment Number Z: 0.211
SMILES: Cn1c(=O)c2c(ncn2C)n(C)c1=O [Caffeine, caffeine]
